This experiment has as its target T1, mAChR M4 (Homo sapiens, UniProt P08173).
T1 construct: expressed in transfected cells; host or cells: CHO-K1 cells stably transfected with M4 cDNA and chimeric G-protein Gqi5
T1 sequence (P08173 1-479): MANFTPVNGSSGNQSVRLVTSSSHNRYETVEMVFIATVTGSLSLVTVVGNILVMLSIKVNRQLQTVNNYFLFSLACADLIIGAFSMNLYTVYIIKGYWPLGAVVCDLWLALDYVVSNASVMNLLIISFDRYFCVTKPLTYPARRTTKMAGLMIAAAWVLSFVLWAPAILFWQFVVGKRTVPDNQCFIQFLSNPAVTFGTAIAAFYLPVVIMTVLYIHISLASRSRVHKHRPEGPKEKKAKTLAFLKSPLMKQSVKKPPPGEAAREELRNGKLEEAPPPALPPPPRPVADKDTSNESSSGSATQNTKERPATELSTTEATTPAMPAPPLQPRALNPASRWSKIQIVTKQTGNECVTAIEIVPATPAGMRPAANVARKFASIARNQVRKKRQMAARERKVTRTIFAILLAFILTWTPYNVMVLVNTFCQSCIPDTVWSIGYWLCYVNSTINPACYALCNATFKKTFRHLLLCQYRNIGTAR
The experiment in a line: mAChR M4 cell-based functional assay (calcium mobilization, potentiation of EC20 acetylcholine response). Particulars: for Emax at 30 µM: % ACh maximum at 30 μM. (In general: Calcium flux is commonly read through the fluorescence of an indicator in the cells.)

Setting [1] is: mAChR M4 cell-based functional assay, >10,000 estimated for low potency compounds without plateau, read-out: EC50.

Read-outs that look alike come from different tables or passages of the source.

Consider `Cc1nnc2sc(C(=O)N3CCCC(c4ccccc4)C3)c(N)c2c1C` (stereo not shown) [Example B107], for which the maximum response (Emax) at 30 µM came to 52%. The EC50 under setting [1] was 1700 nM.

Take `Cc1nnc2sc(C(=O)NCc3ccc(S(=O)(=O)C(C)(C)C(F)(F)F)cc3)c(N)c2c1C` [Example B108]: the maximal effect (Emax) at 30 µM is 61%. The EC50 under setting [1] was 44 nM.

As to `Cc1nnc2sc(C(=O)NC3CC3c3ccc(S(C)(=O)=O)cc3)c(N)c2c1C` (stereo not shown) [Example B109], the maximal response (Emax) at 30 µM worked out at 78%. Also, the EC50 under setting [1] is 120 nM.

`Cc1nnc2sc(C(=O)N3CCC(c4ccccc4)C3)c(N)c2c1C` (stereo not shown) [Example B112]: the Emax at 30 µM came to 61%. For the same compound, the EC50 under setting [1] was 630 nM.

As for `Cc1nnc2sc(C(=O)NC3CCN(c4ccccc4)C3)c(N)c2c1C` (stereo not shown) [Example B113], the maximal response (Emax) at 30 µM is 66%. Besides, the 50% effective concentration (EC50) under setting [1] was 24 nM.

As to `Cc1ccc(S(=O)(=O)N2CCCN(C(=O)c3sc4nnc(C)c(C)c4c3N)CC2)cc1` [Example B114], the Emax at 30 µM was found to be 48%. Also, the concentration giving a half-maximal response (EC50) under setting [1] is 1600 nM.

Turning to `Cc1nnc2sc(C(=O)N3CCC(c4ccccc4)CC3)c(N)c2c1C` [Example B115], the maximal response (Emax) at 30 µM is 38%. Besides, the concentration for a half-maximal effect (EC50) under setting [1] was 3900 nM.

With `Cc1nnc2sc(C(=O)N3CC(c4ccccc4)C3)c(N)c2c1C` [Example B116], the maximal response (Emax) at 30 µM was 75%. Moreover, under setting [1], the EC50 is 160 nM.

In the case of `Cc1nnc2sc(C(=O)NCc3ccc(S(=O)(=O)C(F)F)cc3)c(N)c2c1C` [Example B117], the Emax at 30 µM stood at 66%. Besides, under “EC50 (nM)”, the concentration for a half-maximal effect (EC50) worked out at 18 nM.

In the case of `Cc1nnc2sc(C(=O)NCc3ccc(S(=O)(=O)C(C)(F)F)cc3)c(N)c2c1C` [Example B118], the Emax at 30 µM came to 66%. Also, under setting [1], the EC50 was 10 nM.

On to `Cc1nnc2sc(C(=O)NC3CN(S(=O)(=O)CC(F)(F)F)C3)c(N)c2c1C` [Example B119], for which the maximal effect (Emax) at 30 µM was 68%. Moreover, under setting [1], the EC50 is 82 nM.

As for `Cc1nnc2sc(C(=O)NC3CN(C(=O)CCCc4ccccc4)C3)c(N)c2c1C` [Example B120], the Emax at 30 µM is 86%. Under setting [1], the EC50 is 190 nM.

Consider `Cc1nnc2sc(C(=O)NC3CN(C(=O)C(C)(C)C)C3)c(N)c2c1C` [Example B121], for which the Emax at 30 µM is 92%. In addition, the EC50 under setting [1] is 840 nM.

With `Cc1nnc2sc(C(=O)NC3CN(C(=O)C4CCC4)C3)c(N)c2c1C` [Example B122], the Emax at 30 µM stood at 88%. Moreover, the 50% effective concentration (EC50) under setting [1] was 180 nM.

In the case of `Cc1nnc2sc(C(=O)NC3CN(C(=O)C4CCCCC4)C3)c(N)c2c1C` [Example B123], the Emax at 30 µM is 97%. Further, the half-maximal effective concentration (EC50) under setting [1] was 130 nM.

On to `Cc1nnc2sc(C(=O)NC3CN(C(=O)OCc4ccccc4)C3)c(N)c2c1C` [Example B124], for which the Emax at 30 µM came to 58%. Besides, the EC50 under setting [1] was 22 nM.

For `Cc1nnc2sc(C(=O)NC3CN(C(=O)N4CCCCC4)C3)c(N)c2c1C` [Example B125], the maximal response (Emax) at 30 µM was 58%. Moreover, under setting [1], the 50% effective concentration (EC50) is 1000 nM.

As for `Cc1nnc2sc(C(=O)NC3CN(C(=O)c4ccccn4)C3)c(N)c2c1C` [Example B126], the Emax at 30 µM was 92%. Moreover, under setting [1], the half-maximal effective concentration (EC50) was 290 nM.

In the case of `COc1cccc(C(=O)N2CC(NC(=O)c3sc4nnc(C)c(C)c4c3N)C2)c1` [Example B127], the maximum response (Emax) at 30 µM stood at 82%. Further, the concentration for a half-maximal effect (EC50) under setting [1] was 85 nM.

Regarding `Cc1nnc2sc(C(=O)NC3CN(C(=O)c4cccs4)C3)c(N)c2c1C` [Example B128], the maximal effect (Emax) at 30 µM worked out at 78%. Moreover, the concentration giving a half-maximal response (EC50) under setting [1] was 31 nM.

As for `Cc1nnc2sc(C(=O)NC3CN(C(=O)CCc4ccccc4)C3)c(N)c2c1C` [Example B129], the Emax at 30 µM worked out at 80%. Besides, the EC50 under setting [1] is 110 nM.

`Cc1nnc2sc(C(=O)NC3CN(C(=O)c4ccc5ccccc5c4)C3)c(N)c2c1C` [Example B130]: the Emax at 30 µM turned out to be 79%. Besides, the concentration for a half-maximal effect (EC50) under setting [1] was 97 nM.

With `Cc1nnc2sc(C(=O)NC3CN(C(=O)c4ccc(F)c(F)c4)C3)c(N)c2c1C` [Example B131], the Emax at 30 µM is 76%. The EC50 under setting [1] was 150 nM.

Turning to `Cc1nnc2sc(C(=O)NCc3ccc(S(=O)(=O)CF)cc3)c(N)c2c1C` [Example B132], the Emax at 30 µM was determined as 66%. In addition, the EC50 under setting [1] was 19 nM.

Take `Cc1nnc2sc(C(=O)NC3CN(C(=O)c4ccc5c(c4)OCO5)C3)c(N)c2c1C` [Example B133]: the Emax at 30 µM amounted to 74%. In addition, the concentration giving a half-maximal response (EC50) under setting [1] is 76 nM.

In the case of `CC(=O)N1CC(NC(=O)c2sc3nnc(C)c(C)c3c2N)C1` [Example B134], the Emax at 30 µM came out at 67%. Further, the concentration for a half-maximal effect (EC50) under setting [1] was 520 nM.

Consider `Cc1nnc2sc(C(=O)NC3CN(C(=O)C4CC4)C3)c(N)c2c1C` [Example B135], for which the maximal effect (Emax) at 30 µM is 73%. In addition, under setting [1], the half-maximal effective concentration (EC50) is 230 nM.

Consider `Cc1nnc2sc(C(=O)NC3CN(S(=O)(=O)c4cn(C)cn4)C3)c(N)c2c1C` [Example B136], for which the Emax at 30 µM stood at 72%. For the same compound, the EC50 under setting [1] is 1000 nM.

Take `COc1cccc(S(=O)(=O)N2CC(NC(=O)c3sc4nnc(C)c(C)c4c3N)C2)c1` [Example B137]: the Emax at 30 µM came out at 70%. In addition, under setting [1], the EC50 was 100 nM.

Consider `Cc1cccc(S(=O)(=O)N2CC(NC(=O)c3sc4nnc(C)c(C)c4c3N)C2)c1` [Example B138], for which the Emax at 30 µM turned out to be 65%. The concentration giving a half-maximal response (EC50) under setting [1] was 57 nM.

Consider `Cc1nnc2sc(C(=O)NC3CN(S(=O)(=O)c4cccc(Cl)c4F)C3)c(N)c2c1C` [Example B139], for which the Emax at 30 µM worked out at 65%. For the same compound, the concentration for a half-maximal effect (EC50) under setting [1] is 54 nM.

`Cc1nnc2sc(C(=O)NC3CN(S(=O)(=O)c4ccccc4F)C3)c(N)c2c1C` [Example B140]: the maximum response (Emax) at 30 µM came to 72%. In addition, the EC50 under setting [1] was 43 nM.

In the case of `Cc1nnc2sc(C(=O)NC3CN(S(=O)(=O)c4ccc5ncccc5c4)C3)c(N)c2c1C` [Example B141], the Emax at 30 µM came to 92%. For the same compound, the 50% effective concentration (EC50) under setting [1] is 85 nM.

In the case of `CCS(=O)(=O)N1CC(NC(=O)c2sc3nnc(C)c(C)c3c2N)C1` [Example B142], the Emax at 30 µM turned out to be 77%. The EC50 under setting [1] was 290 nM.

For the compound `Cc1nnc2sc(C(=O)NC3CN(S(=O)(=O)c4cccc5c4OCCC5)C3)c(N)c2c1C` [Example B143], the Emax at 30 µM came to 90%. The EC50 under setting [1] was 120 nM.

For `COc1ccc(S(=O)(=O)N2CC(NC(=O)c3sc4nnc(C)c(C)c4c3N)C2)cc1` [Example B144], the Emax at 30 µM was 87%. Besides, under setting [1], the half-maximal effective concentration (EC50) was 140 nM.

Regarding `Cc1ccc(S(=O)(=O)N2CC(NC(=O)c3sc4nnc(C)c(C)c4c3N)C2)cc1F` [Example B145], the Emax at 30 µM came out at 82%. In addition, the EC50 under setting [1] was 130 nM.

Turning to `Cc1nnc2sc(C(=O)NC3CN(S(=O)(=O)c4ccc(F)cc4F)C3)c(N)c2c1C` [Example B146], the Emax at 30 µM stood at 82%. Moreover, the EC50 under setting [1] was 66 nM.

Regarding `Cc1nnc2sc(C(=O)NC3CN(S(=O)(=O)c4ccc(C(F)(F)F)cc4)C3)c(N)c2c1C` [Example B147], the maximal response (Emax) at 30 µM turned out to be 95%. Also, the EC50 under setting [1] is 87 nM.

On to `Cc1nnc2sc(C(=O)NCC3CCS(=O)(=O)C3)c(N)c2c1C` (stereo not shown) [Example B148], for which the maximum response (Emax) at 30 µM worked out at 50%. Moreover, the 50% effective concentration (EC50) under setting [1] is over 10000 nM.

`Cc1nnc2sc(C(=O)NCC3CCS(=O)(=O)CC3)c(N)c2c1C` [Example B149]: the maximum response (Emax) at 30 µM turned out to be 44%. Moreover, the EC50 under setting [1] is over 10000 nM.

As for `Cc1nnc2sc(C(=O)NC3CN(C(=O)c4ccncc4)C3)c(N)c2c1C` [Example B150], the Emax at 30 µM turned out to be 62%. In addition, the half-maximal effective concentration (EC50) under setting [1] was 190 nM.

For `Cc1nnc2sc(C(=O)NC3CN(C(=O)Oc4ccccc4)C3)c(N)c2c1C` [Example B151], the maximal effect (Emax) at 30 µM is 57%. For the same compound, the half-maximal effective concentration (EC50) under setting [1] was 9.5 nM.

For the compound `CCCCCC(=O)N1CC(NC(=O)c2sc3nnc(C)c(C)c3c2N)C1` [Example B152], the Emax at 30 µM is 85%. Moreover, under setting [1], the 50% effective concentration (EC50) was 110 nM.

In the case of `COC(=O)N1CC(NC(=O)c2sc3nnc(C)c(C)c3c2N)C1` [Example B153], the Emax at 30 µM was 83%. The EC50 under setting [1] is 230 nM.

Consider `Cc1nnc2sc(C(=O)NC3CN(C(=O)Cc4cccs4)C3)c(N)c2c1C` [Example B154], for which the maximal effect (Emax) at 30 µM came out at 88%. Under setting [1], the EC50 was 70 nM.

Consider `Cc1nnc2sc(C(=O)NC3CN(C(=O)c4ccc(F)cc4)C3)c(N)c2c1C` [Example B155], for which the maximum response (Emax) at 30 µM worked out at 91%. The EC50 under setting [1] was 93 nM.

For `Cc1nnc2sc(C(=O)N3CCC(c4ccncc4)C3)c(N)c2c1C` (stereo not shown) [Example B156], the Emax at 30 µM was 53%. Further, the EC50 under setting [1] is 2200 nM.

In the case of `CC(=O)NC1CN(C(=O)c2sc3nnc(C)c(C)c3c2N)C1` [Example B157], the maximum response (Emax) at 30 µM was 32%. Under setting [1], the half-maximal effective concentration (EC50) is over 10000 nM.

Take `Cc1nnc2sc(C(=O)NCc3ccc(O)c(F)c3)c(N)c2c1C` [Example B158]: the Emax at 30 µM came to 66%. The EC50 under setting [1] was 28 nM.

Regarding `Cc1nnc2sc(C(=O)NC3CN(S(=O)(=O)c4ccccc4)C3)c(N)c2c1C` [Example B159], the Emax at 30 µM came out at 56%. Further, the EC50 under setting [1] is 81 nM.

Turning to `Cc1nnc2sc(C(=O)NC3CN(C(=O)c4ccccc4)C3)c(N)c2c1C` [Example B160], the maximum response (Emax) at 30 µM worked out at 71%. Further, the concentration giving a half-maximal response (EC50) under setting [1] is 78 nM.

Regarding `COc1ccc(C(=O)N2CC(NC(=O)c3sc4nnc(C)c(C)c4c3N)C2)c(OC)c1` [Example B161], the Emax at 30 µM stood at 61%. Under setting [1], the EC50 was 200 nM.

In general, Emax refers to the size of the effect at its maximum, as opposed to the concentration needed. What is called EC50 is the concentration that produces a half-maximal response.
